Test results taken from paper PMC8068801, “Novel Benzenesulfonate Scaffolds with a High Anticancer Activity and G2/M Cell Cycle Arrest” (Cancers, 2021).

What was measured:
K562 cells = assay: MTS cytotoxicity assay, K562; format: cell-based, human
Excerpt: (§1) M. Rusin from the Maria Sklodowska-Curie Memorial Cancer Centre and Institute of Oncology in Gliwice, Poland. […] G. Kramer-Marek from the Institute of Cancer Research in London, United Kingdom. The human suspension chronic myelogenous leukemia cell line K562 and pancreas ductal adenocarcinoma cell line PANC-1 were purchased from Sigma-Aldrich (St. Louis, MO, USA), while the normal human dermal fibroblasts cell line NHDF were purchased from PromoCell. […] Each medium contained a combination of two antibiotics: penicillin and streptomycin (1% v/v; Gibco). All of these cell lines were grown under standard conditions at 37 °C with a 5% CO2 humidified atmosphere. Moreover, all of the cell lines were routinely tested for mycoplasma using the PCR technique with specific Mycoplasma primers to confirm that there was no contamination.
(§2) The assay was performed following a 72 h incubation with the various concentrations of the tested compounds. Then, 100 µL DMEM without phenol red with 20 µL of the CellTiter 96®AQueous One Solution-MTS (Promega, Promega, WI, USA) was added to each well and incubated for 1 h or 3 h (PANC-1) at 37 °C. The optical densities of the samples were measured at 490 nm using a multi-plate reader (Synergy 4, BioTek, Winooski, VT, USA). […] Each individual compound was tested in triplicate in a single experiment with each experiment being performed three or four times.

HCT 116 p53^−/− cells = assay: MTS cytotoxicity assay, HCT 116 p53-/-; format: cell-based, human
Excerpt: as §1, §2

A549 cells = assay: MTS cytotoxicity assay, A549; format: cell-based, human
Excerpt: as §1, §2

PANC-1 cells = assay: MTS cytotoxicity assay, PANC-1; format: cell-based, human
Excerpt: as §1, §2

Fyn A = target: T1, Fyn A (Homo sapiens, UniProt P06241); assay: Tyrosine kinase assay (Kinase Selectivity TK-2, ADP-Glo); format: biochemical; details: read-out: Inhibitory Effect of the Tyrosine Kinase Activity, Fyn A
T1 construct: purchased Promega
Procedure: (§3) Assays using the Kinase Selectivity TK-2 profiling systems and ADP-Glo Kinase Assay (both from Promega) were performed to determine the inhibition of the non-receptor tyrosine kinases. The protocol was previously designed and described by our group in reports. The experiments were performed at least four times. The data are expressed as the percentage of the inhibition activity of tyrosine kinase after treatment with the tested derivatives.

ABL1 = target: T2, ABL1 (Homo sapiens, UniProt P00519); assay: as above; format: biochemical; details: read-out: Inhibitory Effect of the Tyrosine Kinase Activity, ABL1
T2 construct: purchased Promega
Procedure: as §3

BRK = target: T3, BRK (Homo sapiens, UniProt Q13882); assay: as above; format: biochemical; details: read-out: Inhibitory Effect of the Tyrosine Kinase Activity, BRK
T3 construct: purchased Promega
Procedure: as §3

Src = target: T4, Src (Homo sapiens, UniProt P12931); assay: as above; format: biochemical; details: read-out: Inhibitory Effect of the Tyrosine Kinase Activity, Src
T4 construct: purchased Promega
Procedure: as §3

Lyn B = target: T5, Lyn B (Homo sapiens, UniProt P07948); assay: as above; format: biochemical; details: read-out: Inhibitory Effect of the Tyrosine Kinase Activity, Lyn B
T5 construct: purchased Promega
Procedure: as §3

Lck = target: T6, Lck (Homo sapiens, UniProt P06239); assay: as above; format: biochemical; details: read-out: Inhibitory Effect of the Tyrosine Kinase Activity, Lck
T6 construct: purchased Promega
Procedure: as §3

CSK = target: T7, CSK (Homo sapiens, UniProt P41240); assay: as above; format: biochemical; details: read-out: Inhibitory Effect of the Tyrosine Kinase Activity, CSK
T7 construct: purchased Promega
Procedure: as §3

BTK = target: T8, BTK (Homo sapiens, UniProt Q06187); assay: as above; format: biochemical; details: read-out: Inhibitory Effect of the Tyrosine Kinase Activity, BTK
T8 construct: purchased Promega
Procedure: as §3

U-251 cells = assay: Immunoblotting with densitometry, U-251; format: cell-based, human
Procedure: The K562 and U-251 cells were seeded in 3 cm Petri dishes (Nunc) at a density of 500,000 cells per well and incubated overnight. […] Next, the cell pellets were resuspended in an RIPA buffer containing a Halt Protease Inhibitor Cocktail and a Halt Phosphatase Inhibitor Cocktail along with 0.5 M EDTA (all from Thermo Scientific, Waltham, MA, USA) and lysed on ice for 20 min. Then, the obtained lysates were sonicated and centrifuged at 10,000 rpm for 10 min at 4 °C. The supernatants were collected for further analysis. The protein concentration was measured using a Micro BCA™ Protein Assay Kit (Thermo Scientific) according to the manufacturer’s instructions. Equal amounts of the proteins (16 μg) were electrophoresed on SDS-Page gels and transferred onto nitrocellulose membranes. The membranes were blocked in 5% non-fat milk prepared in TPBS (PBS containing 0.1% Tween-20) for 1 h. After blocking, the membranes were incubated with the specific primary antibodies (all from Cell Signaling) at a 1:1000 dilution—cyclin E, cdc2, PARP, AIF, BID, p53, p21^Waf1/Cip1, HIF-1α, cathepsin B and caspase-9—and at a 1:2000 dilution for the reference proteins—vinculin, β-actin and GAPDH—overnight at 4 °C. The next day, the membranes were washed in TPBS and incubated with horseradish peroxidase (HRP)-conjugated secondary antibodies for 1 h at room temperature. Lastly, the membranes were washed in TPBS and incubated with a SuperSignal™ West Pico Chemiluminescent Substrate (Thermo Scientific). The chemiluminescence signals were captured using a ChemiDoc™ XRS + System (Biorad). The experiments were performed at least four to five times. The densitometric analysis was conducted using ImageJ software (Wayne Rasband, National Institutes of Health, Bethesda, MD, USA).
The band intensity of tested proteins (p53, cyclin E1, cdc2, p21, HIF-1α, cathepsin b, PARP, caspase-9, BID, AIF) were analyzed by densitometry readings/intensity ratio, using ImageJ software (NIH) and were normalized to the corresponding reference proteins (GAPDH, vinculin or β-actin) value.
The densitometric readings/intensity ratio data from four/five independent experiments (compared to control): […]
p53/ Refer- p21/ Refer- cdc2/ Refer- Cyclin E1/ HIF-1α/ Cathepsin b/Reference ence ence ence Reference Reference
PARP/Reference BID/ Reference Caspase-9/Reference […]

[1] = U-251, 4µM, 24 h, control 0.330
[2] = U-251, 4µM, 24 h, control 1.000

T5 sequence (P07948 1-491 isoform P07948-2): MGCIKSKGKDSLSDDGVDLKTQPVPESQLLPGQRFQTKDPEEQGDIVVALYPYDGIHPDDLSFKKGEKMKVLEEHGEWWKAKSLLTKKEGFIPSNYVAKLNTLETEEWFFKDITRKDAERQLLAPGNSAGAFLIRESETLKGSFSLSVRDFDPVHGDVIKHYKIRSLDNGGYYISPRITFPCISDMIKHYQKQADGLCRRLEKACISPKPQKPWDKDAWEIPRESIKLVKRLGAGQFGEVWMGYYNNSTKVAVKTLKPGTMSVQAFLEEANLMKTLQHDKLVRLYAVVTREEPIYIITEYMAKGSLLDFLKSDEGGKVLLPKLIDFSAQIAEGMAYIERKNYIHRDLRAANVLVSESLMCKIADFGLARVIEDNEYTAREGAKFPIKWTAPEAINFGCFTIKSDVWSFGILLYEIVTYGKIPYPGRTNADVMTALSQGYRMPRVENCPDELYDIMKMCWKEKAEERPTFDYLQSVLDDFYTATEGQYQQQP
T8 sequence (Q06187 whole entry): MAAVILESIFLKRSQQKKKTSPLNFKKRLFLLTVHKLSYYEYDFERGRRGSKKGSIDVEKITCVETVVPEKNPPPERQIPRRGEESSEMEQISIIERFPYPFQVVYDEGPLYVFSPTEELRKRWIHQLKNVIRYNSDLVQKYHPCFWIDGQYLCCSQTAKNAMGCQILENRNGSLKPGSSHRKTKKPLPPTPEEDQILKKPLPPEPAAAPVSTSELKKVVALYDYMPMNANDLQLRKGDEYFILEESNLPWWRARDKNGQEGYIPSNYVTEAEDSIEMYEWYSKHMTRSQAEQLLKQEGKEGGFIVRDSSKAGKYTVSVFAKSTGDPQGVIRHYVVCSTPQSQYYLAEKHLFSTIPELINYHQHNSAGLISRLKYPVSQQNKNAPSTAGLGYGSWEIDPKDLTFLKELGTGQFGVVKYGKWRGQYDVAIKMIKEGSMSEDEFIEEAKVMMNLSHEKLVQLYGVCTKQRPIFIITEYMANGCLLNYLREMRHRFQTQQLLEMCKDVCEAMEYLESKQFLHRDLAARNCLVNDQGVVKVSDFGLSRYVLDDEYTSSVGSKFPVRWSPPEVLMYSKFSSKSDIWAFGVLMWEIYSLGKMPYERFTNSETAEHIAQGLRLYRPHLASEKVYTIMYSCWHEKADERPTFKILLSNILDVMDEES
T6 sequence (P06239 whole entry): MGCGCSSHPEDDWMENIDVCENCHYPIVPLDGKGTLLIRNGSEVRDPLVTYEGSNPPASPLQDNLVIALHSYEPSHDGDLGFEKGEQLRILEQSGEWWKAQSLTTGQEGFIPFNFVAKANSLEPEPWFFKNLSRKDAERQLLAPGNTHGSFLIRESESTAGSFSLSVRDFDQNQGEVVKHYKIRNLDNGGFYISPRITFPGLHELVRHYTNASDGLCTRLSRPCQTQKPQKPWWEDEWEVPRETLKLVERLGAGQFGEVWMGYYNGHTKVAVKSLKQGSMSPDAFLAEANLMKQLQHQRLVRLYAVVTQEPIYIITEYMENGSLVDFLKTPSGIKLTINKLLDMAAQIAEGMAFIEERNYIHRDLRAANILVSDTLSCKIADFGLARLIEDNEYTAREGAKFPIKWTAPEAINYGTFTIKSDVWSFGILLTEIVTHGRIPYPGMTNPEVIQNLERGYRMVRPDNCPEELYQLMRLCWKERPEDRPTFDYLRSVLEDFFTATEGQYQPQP
T1 sequence (P06241 whole entry): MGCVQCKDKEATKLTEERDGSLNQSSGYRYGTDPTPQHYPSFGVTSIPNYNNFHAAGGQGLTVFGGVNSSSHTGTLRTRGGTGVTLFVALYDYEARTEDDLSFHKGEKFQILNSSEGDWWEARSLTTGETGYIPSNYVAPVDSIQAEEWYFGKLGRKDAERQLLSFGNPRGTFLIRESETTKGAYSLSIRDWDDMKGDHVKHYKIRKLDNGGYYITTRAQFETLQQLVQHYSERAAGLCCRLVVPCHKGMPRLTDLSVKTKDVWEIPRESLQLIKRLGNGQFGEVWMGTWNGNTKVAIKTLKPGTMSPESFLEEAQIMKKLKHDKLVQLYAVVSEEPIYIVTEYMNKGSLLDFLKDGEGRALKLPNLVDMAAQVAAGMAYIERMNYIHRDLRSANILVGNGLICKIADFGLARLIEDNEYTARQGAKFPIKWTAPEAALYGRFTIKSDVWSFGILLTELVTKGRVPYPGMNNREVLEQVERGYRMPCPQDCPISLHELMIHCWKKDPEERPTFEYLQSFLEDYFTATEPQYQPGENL
T2 sequence (P00519 whole entry): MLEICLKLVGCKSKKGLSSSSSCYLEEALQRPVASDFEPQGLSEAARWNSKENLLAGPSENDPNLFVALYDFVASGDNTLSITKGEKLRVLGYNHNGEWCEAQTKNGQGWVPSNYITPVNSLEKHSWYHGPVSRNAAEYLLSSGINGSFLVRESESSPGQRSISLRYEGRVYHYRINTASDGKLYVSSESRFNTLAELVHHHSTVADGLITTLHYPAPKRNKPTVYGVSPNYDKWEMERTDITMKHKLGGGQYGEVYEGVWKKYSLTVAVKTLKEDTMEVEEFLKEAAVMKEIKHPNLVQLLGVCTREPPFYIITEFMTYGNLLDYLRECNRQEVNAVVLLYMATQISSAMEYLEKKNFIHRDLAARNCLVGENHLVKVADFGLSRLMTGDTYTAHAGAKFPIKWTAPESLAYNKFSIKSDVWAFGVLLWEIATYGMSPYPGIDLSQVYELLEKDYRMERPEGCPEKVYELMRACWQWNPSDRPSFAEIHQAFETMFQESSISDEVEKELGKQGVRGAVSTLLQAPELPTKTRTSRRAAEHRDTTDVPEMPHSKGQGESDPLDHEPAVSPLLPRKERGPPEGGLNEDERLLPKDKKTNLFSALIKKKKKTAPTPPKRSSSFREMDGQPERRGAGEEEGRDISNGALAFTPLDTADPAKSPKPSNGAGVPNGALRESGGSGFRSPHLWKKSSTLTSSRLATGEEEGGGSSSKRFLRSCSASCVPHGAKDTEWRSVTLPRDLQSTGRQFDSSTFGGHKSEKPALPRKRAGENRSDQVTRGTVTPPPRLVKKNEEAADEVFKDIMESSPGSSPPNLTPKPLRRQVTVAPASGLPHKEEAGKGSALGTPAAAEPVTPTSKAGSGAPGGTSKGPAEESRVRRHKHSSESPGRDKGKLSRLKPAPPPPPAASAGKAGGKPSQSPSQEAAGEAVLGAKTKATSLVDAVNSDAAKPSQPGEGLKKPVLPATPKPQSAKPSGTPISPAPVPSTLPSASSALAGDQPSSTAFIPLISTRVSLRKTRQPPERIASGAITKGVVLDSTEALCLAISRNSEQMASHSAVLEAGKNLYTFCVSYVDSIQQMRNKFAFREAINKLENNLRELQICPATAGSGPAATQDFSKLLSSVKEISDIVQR
T3 sequence (Q13882 whole entry): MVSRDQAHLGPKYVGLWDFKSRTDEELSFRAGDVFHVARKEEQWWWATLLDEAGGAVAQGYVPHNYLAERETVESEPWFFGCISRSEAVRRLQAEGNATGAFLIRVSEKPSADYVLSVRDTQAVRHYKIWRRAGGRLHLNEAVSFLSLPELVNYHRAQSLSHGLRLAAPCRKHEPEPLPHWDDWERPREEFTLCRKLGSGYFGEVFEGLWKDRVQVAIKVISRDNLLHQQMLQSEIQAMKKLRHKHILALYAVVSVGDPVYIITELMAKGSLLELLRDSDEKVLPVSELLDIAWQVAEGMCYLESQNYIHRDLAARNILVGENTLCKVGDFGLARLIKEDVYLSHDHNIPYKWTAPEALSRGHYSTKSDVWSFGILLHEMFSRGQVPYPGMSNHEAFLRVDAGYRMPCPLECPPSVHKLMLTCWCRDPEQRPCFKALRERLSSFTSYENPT
T4 sequence (P12931 whole entry): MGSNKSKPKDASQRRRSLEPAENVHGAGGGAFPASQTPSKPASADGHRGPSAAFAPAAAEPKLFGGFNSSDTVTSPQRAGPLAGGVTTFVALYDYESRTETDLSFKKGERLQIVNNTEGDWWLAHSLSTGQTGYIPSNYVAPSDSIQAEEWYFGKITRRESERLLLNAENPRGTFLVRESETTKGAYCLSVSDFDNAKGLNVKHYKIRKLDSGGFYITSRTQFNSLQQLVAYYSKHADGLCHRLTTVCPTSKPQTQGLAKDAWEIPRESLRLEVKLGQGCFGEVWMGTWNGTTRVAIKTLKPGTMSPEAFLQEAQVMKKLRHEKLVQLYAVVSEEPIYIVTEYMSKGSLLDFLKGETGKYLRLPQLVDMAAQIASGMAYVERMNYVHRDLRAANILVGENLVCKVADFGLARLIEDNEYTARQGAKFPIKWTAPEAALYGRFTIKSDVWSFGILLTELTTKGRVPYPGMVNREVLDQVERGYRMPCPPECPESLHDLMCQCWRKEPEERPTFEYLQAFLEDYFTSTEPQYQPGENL

inhibition at 0.5 µM (Fyn A): 23.7%
inhibition at 0.5 µM (ABL1): 28.4%
inhibition at 0.5 µM (BRK): 15.3%
inhibition at 0.5 µM (Src): 0.19%
inhibition at 0.5 µM (Lyn B): 0%
inhibition at 0.5 µM (Lck): 25.8%
inhibition at 0.5 µM (CSK): 0%
inhibition at 0.5 µM (BTK): 18.8%
SMILES: COc1ccccc1/C=C/c1nc(OS(=O)(=O)c2ccc3c(c2)OCO3)c2ccccc2n1 [BS1, 2-((E)-2-(2-methoxyphenyl)ethenyl)quinazolin-4-yl 1,3-benzodioxole-5-sulfonate]
IC50 (K562 cells; Homo sapiens, K562, 72 h incubation, MTS): 172 ± 34 nM
Selectivity index, K562 (K562 cells; normal fibroblasts NHDF vs K562): 72.91
IC50 (HCT 116 p53^−/− cells; Homo sapiens, HCT 116 p53^−/−, 72 h incubation, MTS): 563 ± 121 nM
Selectivity index, HCT 116 p53 −/− (HCT 116 p53^−/− cells; NHDF vs HCT 116 p53 −/−): 22.27
IC50 (A549 cells; Homo sapiens, A549, 72 h, A549, 72 h incubation, MTS): > 25000 nM
Selectivity index, A549 (A549 cells; NHDF vs A549): 1.00
IC50 (PANC-1 cells; Homo sapiens, PANC-1, 72 h incubation, MTS): 3980 ± 597 nM
Selectivity index, PANC-1 (PANC-1 cells; NHDF vs PANC-1): 3.15
Cleavage product of caspase-9 (Western blot) (U-251 cells; U-251, 4 µM, 24 h): approximately three-fold increase
PARP/Reference 89 kDa, densitometric intensity ratio (U-251 cells; [1]): 1.044
caspase-9/Reference 37-35 kDa, densitometric intensity ratio (U-251 cells; [1]): 1.485
BID/Reference 22 kDa, densitometric intensity ratio (U-251 cells; [2]): 0.675
Cathepsin b/Reference 44 kDa, densitometric intensity ratio (U-251 cells; [2]): 2.467
HIF-1α/Reference 120 kDa, densitometric intensity ratio (U-251 cells; [2]): 0.550
PARP/Reference 116 kDa, densitometric intensity ratio (U-251 cells; [2]): 0.871
caspase-9/Reference 47 kDa, densitometric intensity ratio (U-251 cells; [2]): 1.167
cdc2/Reference 34 kDa, densitometric intensity ratio (U-251 cells; [2]): 1.986
cyclin E1/Reference 48 kDa, densitometric intensity ratio (U-251 cells; [2]): 0.576
p21/Reference 21 kDa, densitometric intensity ratio (U-251 cells; [2]): 1.932
p53/Reference 53 kDa, densitometric intensity ratio (U-251 cells; [2]): 1.357
Cathepsin b/Reference 27 kDa, densitometric intensity ratio (U-251 cells; U-251, 4µM, 24 h, control 2.837): 2.726
Cathepsin b/Reference 22 kDa, densitometric intensity ratio (U-251 cells; U-251, 4µM, 24 h, control […]): 2.940
HIF-1α protein expression (Western blot) (U-251 cells; U-251, 24 h): significant decrease
p53 protein levels (Western blot) (U-251 cells; U-251, 24 h): slight increase
